{"source": "patent US20230233617A1", "about": "“METHODS FOR DIFFERENTIATING STEM CELLS INTO DOPAMINERGIC PROGENITOR CELLS” (JZ CELL TECHNOLOGIES AB, priority 2020, published 2023)", "key": {"CYP26": {"tested_on": "CYP26", "conditions": "cited from earlier work"}, "hESCs": {"tested_on": "hESCs", "assay": "Conversion of hPSCs into NSCs (OCT4, SOX1, PAX6 expression) in dSMADi cultures", "type": "cell-based, human", "method": "To explore the activities of RA on hESCs directed to adopt a neural fate in response to dSMADi^14, we treated cultures with 200 nM all-trans RA for the first 1, 2, 3 or 4 days of differentiation (RA^1D, RA^2D, RA^3D, RA^4D) (FIG. 1a) and monitored fate and identity of cells at different stages by immunoblotting, quantitative immunocytochemistry, qPCR or RNA-sequencing (RNA-seq). […] Induction of SOX1 and PAX6 at low levels occurred at 3 DDC (FIG. 1b). OCT4 and SOX1 were co-expressed by cells between 3-4 DDC (FIG. 1b, c; FIG. 7a (Supplementary FIG. 1a)) showing that the conversion of hPSCs into NSCs in response to dSMADi-treatment encompass a protracted time-window over which expression of pluripotency- and neural-specific genes overlap. […] By 7 DDC, SOX1 and neural marker NESTIN were expressed at similar levels in dSMADi-only and in dSMADi+RA^2D cultures (FIG. 1d). […] Endodermal or mesodermal lineage markers were not expressed (FIG. 7b (Supplementary FIG. 1b)). In dSMADi+RA^2D conditions, prompt suppression of OCT4 and fast upregulation of SOX1 was attained within a concentration range of RA between 50-500 nM (FIG. 1g). […] Thus, combining dSMADi treatment with exposure of hPSCs to RA for 48 hours or longer promotes a rapid and switch-like transition from pluripotency into a NSC-state.\n80-90% confluent PSCs cultures were rinsed twice with PBS, treated with EDTA (0.5 mM in PBS) for 5-7 min, and resuspended into single cell suspension in PBS. Cells were spin down at 400 g and resuspended in N2B27 medium (DMEM/F12: Neurobasal (1:1), 0.5×N2 and 0.5×B27 (plus vitamin A) supplements, 1×nonessential amino acids, 1% GlutaMAX, 55 μM β-mercaptoethanol-all from Thermo Fisher Scientific) containing 5 μM SB431542 (Miltenyi Biotech) and 2.5 μM DMH1 (Santa Cruz Biotech) (dual SMAD inhibition), and 10 μM ROCK inhibitor (for the first 48 hours after seeding). Cells were seeded on VTN (2 μg/cm^2) and Fibronectin (FN) (2 μg/cm^2) (Sigma) coated surface at a density of 60,000-80,000 cells/cm^2 for RA- and RA-analogues based experiments, and 20,000 cells/cm^2 for CHIR99021 experiments. […]"}, "hPSC-derived NSCs": {"tested_on": "hPSC-derived NSCs", "assay": "Regional identity of hPSC-derived NSCs at 9 DDC after RA pulse in dSMADi conditions", "type": "cell-based, human", "method": "Cells were fixed for 12 min at room temperature (RT) in 4% paraformaldehyde in PBS, rinsed 3 times in PBST (PBS with 0.1% Triton-X100), and blocked for 1 hour at RT with blocking solution (3% FCS/0.1% Triton-X100 in PBS). Cells were then incubated with primary antibodies overnight at 4° C., followed by incubation with fluorophore-conjugated secondary antibodies for 1 hour at RT. Both primary and fluorophore-conjugated secondary antibodies were diluted in blocking solution. Primary antibodies used are listed in Supplementary Table 1. Appropriate Alexa (488, 555, 647)-conjugated secondary antibodies (Molecular Probes) were used."}}, "data": [{"smiles": "CC1=C(/C=C/C(C)=C/C=C/C(C)=C/C(=O)O)C(C)(C)CCC1", "note": "[RA, all-trans retinoic acid]", "values": [{"measurement": "susceptibility to CYP26-mediated oxidation", "setting": "CYP26", "value": "substrates for CYP26-mediated oxidation"}, {"measurement": "rapid OCT4 suppression and fast upregulation of SOX1", "setting": "hESCs; 200 nM RA for one day (dSMADi+RA^1D)", "value": "not sufficient to promote rapid OCT4 suppression nor fast upregulation of SOX1"}, {"measurement": "OCT4 expression", "setting": "hESCs; dSMADi and 200 nM RA for two days or longer", "value": "expression of OCT4 had essentially been extinguished by 3 DDC"}, {"measurement": "concentration range of RA giving prompt suppression of OCT4 and fast upregulation of SOX1", "setting": "hESCs; dSMADi+RA^2D, 3 DDC", "value": "50 to 500", "unit": "nM"}, {"measurement": "regional identity of NSCs", "setting": "hPSC-derived NSCs; 200 nM RA for 1 day (RA^1D)", "value": "FB-like character"}, {"measurement": "regional identity of NSCs", "setting": "hPSC-derived NSCs; 200 nM RA for 2 days (RA^2D)", "value": "FOXG1^−/OTX2^+/HOXA2^− MB-like character"}, {"measurement": "regional identity of NSCs", "setting": "hPSC-derived NSCs; 200 nM RA for 3 days (RA^3D)", "value": "FOXG1^−/OTX2^−/HOXA2^+/HOXB4^− rostral HB"}, {"measurement": "regional identity of NSCs", "setting": "hPSC-derived NSCs; 200 nM RA for 4 days (RA^4D)", "value": "FOXG1^−/OTX2^−/HOXA2^+/HOXB4^+ caudal HB"}]}]}
